Laboratory results as given in patent US10392368B2, “Pyrazolo and triazolo bicyclic compounds as JAK kinase inhibitors” (THERAVANCE BIOPHARMA R&D IP, LLC, priority 2017, dated 2019).

What was measured:
JAK1 = target: T1, JAK1 (Homo sapiens, UniProt P23458); test: Biochemical JAK1 kinase assay (LanthaScreen); conditions: for Ki: read-out: JAK 1 (pKi) (converted)
T1 construct: GST; purchased Life Technologies
How it was run: (§1)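 TR-FRET readout (520/495 nm) using Tb-labelled pTyr701 antibody after EDTA stop, following 1 h ATP-started phosphorylation of GFP-STAT1 by recombinant GST-JAK. Compounds preincubated 1 h with enzyme and substrate; pIC50 from 4-parameter fit, Cheng-Prusoff gives pKi.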

JAK2 = target: T2, JAK2 (Homo sapiens, UniProt O60674); test: Biochemical JAK2 kinase assay (LanthaScreen); conditions: for Ki: read-out: JAK 2 (pKi) (converted)
T2 construct: GST; purchased Life Technologies
T2 sequence (O60674 whole entry): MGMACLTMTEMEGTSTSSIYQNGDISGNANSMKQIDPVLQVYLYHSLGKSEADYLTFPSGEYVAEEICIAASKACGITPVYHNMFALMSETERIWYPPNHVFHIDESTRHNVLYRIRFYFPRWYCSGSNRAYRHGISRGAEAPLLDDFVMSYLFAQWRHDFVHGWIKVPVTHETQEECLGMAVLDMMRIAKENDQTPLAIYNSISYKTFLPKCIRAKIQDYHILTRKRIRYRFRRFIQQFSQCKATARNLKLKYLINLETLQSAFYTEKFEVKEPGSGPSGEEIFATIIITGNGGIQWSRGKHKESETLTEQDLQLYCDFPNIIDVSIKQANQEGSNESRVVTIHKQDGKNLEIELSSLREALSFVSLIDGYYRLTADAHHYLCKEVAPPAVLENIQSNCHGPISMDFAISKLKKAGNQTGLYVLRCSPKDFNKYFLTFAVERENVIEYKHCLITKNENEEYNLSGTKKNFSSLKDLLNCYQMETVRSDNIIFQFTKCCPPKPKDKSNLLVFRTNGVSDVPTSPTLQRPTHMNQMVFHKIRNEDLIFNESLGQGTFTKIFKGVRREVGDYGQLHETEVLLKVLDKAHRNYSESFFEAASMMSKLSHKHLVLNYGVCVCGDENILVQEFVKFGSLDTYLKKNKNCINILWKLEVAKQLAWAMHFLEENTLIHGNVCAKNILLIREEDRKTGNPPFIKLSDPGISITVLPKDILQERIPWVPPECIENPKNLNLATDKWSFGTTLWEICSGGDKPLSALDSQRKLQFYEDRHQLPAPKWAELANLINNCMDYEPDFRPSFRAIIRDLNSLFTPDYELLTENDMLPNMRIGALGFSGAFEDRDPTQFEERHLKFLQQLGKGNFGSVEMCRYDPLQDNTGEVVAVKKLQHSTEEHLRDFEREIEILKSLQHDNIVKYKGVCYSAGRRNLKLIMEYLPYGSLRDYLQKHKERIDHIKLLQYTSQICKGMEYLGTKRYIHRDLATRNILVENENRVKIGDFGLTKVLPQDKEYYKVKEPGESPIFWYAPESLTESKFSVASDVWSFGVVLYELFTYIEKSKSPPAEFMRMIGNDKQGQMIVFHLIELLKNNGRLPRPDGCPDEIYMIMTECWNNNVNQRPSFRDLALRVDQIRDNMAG
How it was run: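 pKi values derive from pIC50 via Cheng-Prusoff, with IC50 from a 4-parameter fit of percent-inhibition TR-FRET data using Tb-anti-pSTAT1 (pTyr701) detection. Compound, GST-JAK2 and GFP-STAT1 substrate were pre-incubated 1 h, then ATP started a 1 h ambient reaction (HEPES pH 7.5, 10 mM MgCl2, 1% DMSO).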

Tyk2 = target: T3, Tyk2 (Homo sapiens, UniProt P29597); test: Biochemical Tyk2 kinase assay (LanthaScreen); conditions: for Ki: read-out: Tyk 2 (pKi) (converted)
T3 construct: GST; purchased Life Technologies
T3 sequence (P29597 whole entry): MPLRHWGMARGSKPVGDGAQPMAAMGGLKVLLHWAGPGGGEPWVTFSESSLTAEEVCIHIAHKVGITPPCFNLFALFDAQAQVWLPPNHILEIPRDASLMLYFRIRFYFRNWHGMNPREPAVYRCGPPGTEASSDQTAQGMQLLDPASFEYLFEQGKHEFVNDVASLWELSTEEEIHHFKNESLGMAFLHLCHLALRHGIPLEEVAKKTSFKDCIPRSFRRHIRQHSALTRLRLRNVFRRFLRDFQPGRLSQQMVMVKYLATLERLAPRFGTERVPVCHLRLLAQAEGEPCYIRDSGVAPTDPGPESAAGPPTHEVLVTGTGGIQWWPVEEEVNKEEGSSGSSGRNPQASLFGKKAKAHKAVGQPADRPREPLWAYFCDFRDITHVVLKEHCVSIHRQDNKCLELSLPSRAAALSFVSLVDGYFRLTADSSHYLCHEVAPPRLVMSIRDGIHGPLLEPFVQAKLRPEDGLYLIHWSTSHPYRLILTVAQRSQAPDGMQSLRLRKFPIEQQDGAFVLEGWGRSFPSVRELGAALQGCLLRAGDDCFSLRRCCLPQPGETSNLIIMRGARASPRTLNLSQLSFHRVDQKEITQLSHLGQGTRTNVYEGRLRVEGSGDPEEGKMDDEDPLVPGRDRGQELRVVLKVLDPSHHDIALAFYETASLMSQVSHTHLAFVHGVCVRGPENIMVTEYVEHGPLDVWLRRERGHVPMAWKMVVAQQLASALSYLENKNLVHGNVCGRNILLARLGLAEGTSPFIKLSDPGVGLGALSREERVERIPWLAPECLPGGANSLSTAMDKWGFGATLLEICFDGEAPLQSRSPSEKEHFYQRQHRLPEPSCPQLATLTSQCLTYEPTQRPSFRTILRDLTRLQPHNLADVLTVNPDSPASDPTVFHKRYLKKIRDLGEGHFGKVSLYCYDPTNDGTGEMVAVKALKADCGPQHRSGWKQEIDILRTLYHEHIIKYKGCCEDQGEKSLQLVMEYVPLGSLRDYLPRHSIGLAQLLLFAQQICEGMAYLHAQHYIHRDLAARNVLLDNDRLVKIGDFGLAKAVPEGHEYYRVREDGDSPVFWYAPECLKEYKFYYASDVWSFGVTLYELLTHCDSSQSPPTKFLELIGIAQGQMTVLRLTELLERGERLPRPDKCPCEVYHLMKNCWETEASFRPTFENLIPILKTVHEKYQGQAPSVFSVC
How it was run: as §1

[1] = tested on: IL-2 stimulated pSTAT5 in Tall-1 T cells; test: Cellular JAK3 potency assay: inhibition of IL-2 stimulated pSTAT5 in Tall-1 T cells; format: cell-based, human; conditions: for IC50: Homo sapiens, TALL-1, IL-2 stimulated pSTAT5 in Tall-1 T cells, read-out: Tall-1 (pIC50) (converted)
How it was run: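 Inhibition of IL-2-induced pSTAT5 was quantified by AlphaLisa in Tall-1 cell lysates. Compound exposure lasted 1 h before 30 min stimulation with 300 ng/ml IL-2 final.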

[2] = tested on: oxazolone-induced colitis; test: Mouse model of oxazolone-induced colitis; format: in vivo
Protocol: Oxazolone-induced colitis is an experimental model that has a histological resemblance to human ulcerative colitis (Heller et al. Immunology, 2002, 17, 629-638). Adult BALB/C mice from Harlan were used in the assay. On day 1, animals were lightly anesthetized with isoflurane and the hairs between the shoulder were carefully removed before oxazolone (4%, 150 μL, 4:1 acetone:olive oil formulation) or vehicle solution was slowly applied for skin sensitization. Seven days after skin sensitization, the mice were fasted around 6 hours prior, anesthetized with ketamine/xylazine injection, and a 1 mL syringe equipped with a 3.5-F catheter, filled with oxazolone solution, was inserted carefully about 4 cm into the colon of the mouse. Following insertion, 50 μL of the oxazolone solution (0.8% in 1:1 ethanol:water formulation) was injected very slowly (over 30 sec using an injection pump) into the colon. Drug treatment (PO, QD or BID or TID) or vehicle was initiated a day prior to the oxazolone intrarectal (IR) challenge. Two-day post oxazolone intrarectal challenge, the disease was assessed by treatment-blinded experimenters for each mouse according to the criteria score: stool consistency score (0, normal; 2, loose; 4, diarrhea), gross bleeding score (0, absence; 2, blood tinged; 4, presence); Combined stool score endpoint=stool consistency score+stool blood score.
Select compounds were tested in the assay.

JAK3 = target: T4, JAK3 (Homo sapiens, UniProt P52333); test: Biochemical JAK3 kinase assay (LanthaScreen); design: GST; purchased Life Technologies; conditions: for Ki: read-out: JAK 3 (pKi) (converted)
T4 sequence (P52333 1-1124): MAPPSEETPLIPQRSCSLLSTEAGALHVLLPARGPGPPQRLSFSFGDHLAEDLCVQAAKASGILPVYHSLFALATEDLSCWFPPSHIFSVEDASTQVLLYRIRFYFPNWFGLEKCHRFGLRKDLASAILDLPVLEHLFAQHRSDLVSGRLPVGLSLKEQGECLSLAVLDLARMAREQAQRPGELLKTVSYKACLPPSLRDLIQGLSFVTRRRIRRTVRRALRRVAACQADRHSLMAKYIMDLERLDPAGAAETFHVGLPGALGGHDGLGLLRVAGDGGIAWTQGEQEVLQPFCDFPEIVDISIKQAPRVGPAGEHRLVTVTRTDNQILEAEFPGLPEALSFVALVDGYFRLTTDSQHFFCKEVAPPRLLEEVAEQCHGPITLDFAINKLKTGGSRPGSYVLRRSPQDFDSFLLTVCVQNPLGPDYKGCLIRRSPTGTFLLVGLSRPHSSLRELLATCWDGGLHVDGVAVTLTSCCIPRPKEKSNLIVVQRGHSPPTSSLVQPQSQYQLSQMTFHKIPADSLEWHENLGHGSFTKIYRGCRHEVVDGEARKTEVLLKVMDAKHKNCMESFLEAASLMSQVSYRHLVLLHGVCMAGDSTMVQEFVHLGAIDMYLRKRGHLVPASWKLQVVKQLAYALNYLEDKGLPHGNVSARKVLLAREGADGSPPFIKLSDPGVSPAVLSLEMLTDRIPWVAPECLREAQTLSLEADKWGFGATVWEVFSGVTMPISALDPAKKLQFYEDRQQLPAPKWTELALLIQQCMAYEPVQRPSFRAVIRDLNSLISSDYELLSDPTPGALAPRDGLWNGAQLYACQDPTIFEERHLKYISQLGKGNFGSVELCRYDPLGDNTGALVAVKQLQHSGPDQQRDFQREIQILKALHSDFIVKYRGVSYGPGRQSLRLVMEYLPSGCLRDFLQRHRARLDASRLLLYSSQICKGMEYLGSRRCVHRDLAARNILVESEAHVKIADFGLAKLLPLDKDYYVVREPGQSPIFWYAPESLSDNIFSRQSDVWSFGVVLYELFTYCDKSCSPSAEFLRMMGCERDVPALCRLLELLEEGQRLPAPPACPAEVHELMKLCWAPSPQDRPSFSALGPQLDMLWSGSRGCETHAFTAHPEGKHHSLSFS
How it was run: as §1

[3] = IL-2 stimulated pSTAT5 in Tall-1 T cells
[4] = selectivity: difference of pKi JAK3 and pKi JAK1
[5] = IL-2 stimulated pSTAT5, Tall-1 T cells
[6] = selectivity JAK3 over JAK1, difference of pKi

T1 sequence (P23458 whole entry): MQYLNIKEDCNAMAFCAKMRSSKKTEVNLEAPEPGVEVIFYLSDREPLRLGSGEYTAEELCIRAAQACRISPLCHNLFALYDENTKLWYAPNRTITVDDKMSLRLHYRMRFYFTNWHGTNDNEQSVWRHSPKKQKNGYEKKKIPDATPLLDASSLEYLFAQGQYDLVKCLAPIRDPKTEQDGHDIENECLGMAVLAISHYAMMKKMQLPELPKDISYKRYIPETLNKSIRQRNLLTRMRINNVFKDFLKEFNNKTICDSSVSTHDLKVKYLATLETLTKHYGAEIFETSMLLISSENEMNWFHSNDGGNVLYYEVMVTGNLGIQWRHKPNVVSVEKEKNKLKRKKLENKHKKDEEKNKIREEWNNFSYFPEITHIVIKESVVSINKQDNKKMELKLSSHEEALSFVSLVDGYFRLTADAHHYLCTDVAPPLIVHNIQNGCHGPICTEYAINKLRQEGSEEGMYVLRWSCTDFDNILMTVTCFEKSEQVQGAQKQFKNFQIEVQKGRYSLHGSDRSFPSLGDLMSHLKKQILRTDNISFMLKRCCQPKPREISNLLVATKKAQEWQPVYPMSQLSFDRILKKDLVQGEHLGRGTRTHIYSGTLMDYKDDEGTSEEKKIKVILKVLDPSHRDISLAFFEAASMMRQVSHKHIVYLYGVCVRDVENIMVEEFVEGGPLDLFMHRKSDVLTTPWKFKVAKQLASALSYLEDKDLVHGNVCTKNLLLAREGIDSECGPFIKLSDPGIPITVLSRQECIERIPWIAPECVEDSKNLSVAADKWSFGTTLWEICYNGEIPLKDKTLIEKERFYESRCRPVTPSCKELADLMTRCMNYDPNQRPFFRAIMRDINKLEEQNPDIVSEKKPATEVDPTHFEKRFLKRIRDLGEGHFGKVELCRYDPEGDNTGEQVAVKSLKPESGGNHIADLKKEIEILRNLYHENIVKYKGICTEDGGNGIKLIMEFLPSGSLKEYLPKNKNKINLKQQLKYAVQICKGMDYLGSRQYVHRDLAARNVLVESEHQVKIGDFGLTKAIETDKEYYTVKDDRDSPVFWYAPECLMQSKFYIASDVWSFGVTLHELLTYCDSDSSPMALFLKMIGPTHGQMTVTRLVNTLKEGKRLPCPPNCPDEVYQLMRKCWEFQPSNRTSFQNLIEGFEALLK

| SMILES | JAK 1 (pKi) (JAK1) | JAK 2 (pKi) (JAK2) | Tyk 2 (pKi) (Tyk2) | Tall-1 (pIC50) [1, 3] | combined stool score endpoint as compared with vehicle treated animals ([2]; 3 mg/kg (PO, BID)) | JAK 3 (pKi) (JAK3) | JAK3 (pKi)-JAK1 (pKi) (JAK3; [4]) | Ki (JAK1) [µM] | Ki (JAK2) [µM] | Ki (Tyk2) [µM] | IC50 [1] [µM] | combined stool score endpoint as compared with vehicle treated animals ([2]; 1 and 10 mg/kg only (PO, BID)) | Ki (JAK3) [µM] | Tall-1 (pIC50) [1, 5] | JAK3 (pKi)-JAK1 (pKi) (JAK3; [6]) |
| --- | --- | --- | --- | --- | --- | --- | --- | --- | --- | --- | --- | --- | --- | --- | --- |
| C=CC(=O)N1CC(C)(COc2nc(-c3ccc(O)cc3)nc3[nH]ncc23)C1 [Compound 3-57] | E (a pKi value of 7 or below (Ki of 100 nM or above)) | E (a pKi value of 7 or below (Ki of 100 nM or above)) | E (a pKi value of 7 or below (Ki of 100 nM or above)) | B (a pIC50 value between 6.7 (included) and 7.5 (IC50 between 200 nM and 32 nM)) | statistically significant decrease | A (a pKi value≥10 (Ki≤0.1 nM)) | A (a value of 3 or above) | – | – | – | – | – | – | – | – |
| CN(C)C/C=C/C(=O)N1CC(Oc2cc(-c3ccc(O)cc3)cc3[nH]ncc23)(C(F)F)C1 [Compound 5-10] | E (a pKi value of 7 or below (Ki of 100 nM or above)) | – | – | B (a pIC50 value between 6.7 (included) and 7.5 (IC50 between 200 nM and 32 nM)) | statistically significant decrease | B (a pKi value between 9 and 10 (Ki between 1 nM and 0.1 nM)) | A (a value of 3 or above) | – | – | – | – | – | – | – | – |
| CN(C)C/C=C/C(=O)N1CC(C)(COc2cc(-c3ccc(O)c(F)c3)cc3[nH]ncc23)C1 [Compound 3-11] | E (a pKi value of 7 or below (Ki of 100 nM or above)) | D (a pKi value between 7 and 8 (Ki between 100 nM and 10 nM)) | E (a pKi value of 7 or below (Ki of 100 nM or above)) | B (a pIC50 value between 6.7 (included) and 7.5 (IC50 between 200 nM and 32 nM)) | statistically significant decrease | A (a pKi value≥10 (Ki≤0.1 nM)) | A (a value of 3 or above) | – | – | – | – | – | – | – | – |
| C=CC(=O)N1CC(C(C)(C)Oc2cc(-c3ccc(O)c(Cl)c3)nc3[nH]ncc23)C1 [Compound 3-80] | E (a pKi value of 7 or below (Ki of 100 nM or above)) | E (a pKi value of 7 or below (Ki of 100 nM or above)) | E (a pKi value of 7 or below (Ki of 100 nM or above)) | B (a pIC50 value between 6.7 (included) and 7.5 (IC50 between 200 nM and 32 nM)) | statistically significant decrease | A (a pKi value≥10 (Ki≤0.1 nM)) | A (a value of 3 or above) | – | – | – | – | – | – | – | – |
| COC1(COc2cc(-c3ccc(O)c(F)c3)cc3[nH]ncc23)CN(C(=O)/C=C/CN(C)C)C1 [Compound 3-74] | – | – | – | – | – | – | A (a value of 3 or above) | > 0.1 | > 0.1 | > 0.1 | < 0.0316 | statistically significant decrease | < 0.0001 | – | – |
| COC1(COc2cc(-c3ccc(O)c(Cl)c3)cc3[nH]ncc23)CN(C(=O)/C=C/CN(C)C)C1 [Compound 3-72] | – | – | – | – | statistically significant decrease | – | A (a value of 3 or above) | > 0.1 | > 0.1 | > 0.1 | < 0.0316 | – | 0.0001 to 0.001 | – | – |
| CC(C)N(C)C/C=C/C(=O)N1CC(COc2cc(-c3ccc(O)cc3)cc3[nH]ncc23)C1 [Compound 3-113] | – | – | – | – | – | – | A (a value of 3 or above) | > 0.1 | 0.01 to 0.1 | > 0.1 | < 0.0316 | statistically significant decrease | < 0.0001 | – | – |
| C=CC(=O)N1CC2(CC(Oc3cc(-c4ccc(O)c(Cl)c4)cc4[nH]ncc34)C2)C1 [Compound 15-1] | E (a pKi value of 7 or below (Ki of 100 nM or above)) | E (a pKi value of 7 or below (Ki of 100 nM or above)) | E (a pKi value of 7 or below (Ki of 100 nM or above)) | – | statistically significant decrease | B (a pKi value between 9 and 10 (Ki between 1 nM and 0.1 nM)) | – | – | – | – | – | – | – | A (a pIC50 value≥7.5 (IC50≤32 nM)) | A (a value of 3 or above) |
| CN(C)C/C=C/C(=O)N1CC(COc2nc(-c3ccc(O)c(Cl)c3)cc3[nH]ncc23)C1 [Compound 3-34] | E (a pKi value of 7 or below (Ki of 100 nM or above)) | E (a pKi value of 7 or below (Ki of 100 nM or above)) | E (a pKi value of 7 or below (Ki of 100 nM or above)) | B (a pIC50 value between 6.7 (included) and 7.5 (IC50 between 200 nM and 32 nM)) | statistically significant decrease | A (a pKi value≥10 (Ki≤0.1 nM)) | A (a value of 3 or above) | – | – | – | – | – | – | – | – |
| C=CC(=O)N1CC2(CC(Oc3nc(-c4ccc(O)cc4)nc4[nH]ncc34)C2)C1 [Compound 15-3] | E (a pKi value of 7 or below (Ki of 100 nM or above)) | E (a pKi value of 7 or below (Ki of 100 nM or above)) | E (a pKi value of 7 or below (Ki of 100 nM or above)) | – | statistically significant decrease | A (a pKi value≥10 (Ki≤0.1 nM)) | – | – | – | – | – | – | – | A (a pIC50 value≥7.5 (IC50≤32 nM)) | A (a value of 3 or above) |
| C=CC(=O)N1CC(C(C)(C)Oc2cc(-c3ccc(O)c(F)c3)nc3[nH]ncc23)C1 [Compound 3-81] | E (a pKi value of 7 or below (Ki of 100 nM or above)) | E (a pKi value of 7 or below (Ki of 100 nM or above)) | E (a pKi value of 7 or below (Ki of 100 nM or above)) | A (a pIC50 value≥7.5 (IC50≤32 nM)) | statistically significant decrease | A (a pKi value≥10 (Ki≤0.1 nM)) | A (a value of 3 or above) | – | – | – | – | – | – | – | – |
